Data taken from ChEMBL document CHEMBL1201862, “PubChem BioAssay data set” (2004).
Activity calls are given as the source filed them.

What was measured:
[1] = nonselective inhibitors of cellular cAMP signaling, dose response, counter-screen for MC4R biased antagonist project, cell-based, TR-FRET cAMP detection (AID 602305); assay type: functional;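 further: U2OS cells stimulated with forskolin near its EC80 as the cAMP inducer; potency is for inhibition of forskolin-stimulated cAMP signaling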
[2] = target: Melanocortin receptor 4 (Homo sapiens, UniProt P32245); assay: MC4R antagonist potency on cAMP, dose response, cell-based, TR-FRET, biased antagonists (AID 602298); assay type: functional;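 further: antagonist potency against agonist-stimulated cAMP production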
[3] = target: DNA dC->dU-editing enzyme APOBEC-3G (Homo sapiens, UniProt Q9HC16); assay: APOBEC3G deaminase inhibitors, SAR follow-up, biochemical, fluorescence, single-stranded DNA substrate (AID 602136); assay type: functional; conditions: read-out: IC50_Mean
[4] = target: DNA dC->dU-editing enzyme APOBEC-3A (Homo sapiens, UniProt P31941); assay: SAR analysis of small molecule inhibitors of APOBEC3A DNA Deaminase via a fluorescence-based single-stranded DNA deaminase assay.; assay type: functional; conditions: read-out: IC50_Mean
Chain of DNA dC->dU-editing enzyme APOBEC-3A (P31941 whole entry): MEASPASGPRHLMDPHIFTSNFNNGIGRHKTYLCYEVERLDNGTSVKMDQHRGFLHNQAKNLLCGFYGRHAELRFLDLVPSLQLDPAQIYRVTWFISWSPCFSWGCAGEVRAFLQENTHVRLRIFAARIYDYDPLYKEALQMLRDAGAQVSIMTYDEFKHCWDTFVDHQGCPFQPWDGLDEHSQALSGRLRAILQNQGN

[5] = target: Glycogen synthase kinase-3 beta (Homo sapiens, UniProt P49841); assay type: functional;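 further: value comes from a broad kinome profiling panel, with GSK3B as the panel member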
[6] = target: Mitogen-activated protein kinase kinase kinase kinase 4 (Homo sapiens, UniProt O95819); assay type: functional
Chain of Mitogen-activated protein kinase kinase kinase kinase 4 (O95819 whole entry): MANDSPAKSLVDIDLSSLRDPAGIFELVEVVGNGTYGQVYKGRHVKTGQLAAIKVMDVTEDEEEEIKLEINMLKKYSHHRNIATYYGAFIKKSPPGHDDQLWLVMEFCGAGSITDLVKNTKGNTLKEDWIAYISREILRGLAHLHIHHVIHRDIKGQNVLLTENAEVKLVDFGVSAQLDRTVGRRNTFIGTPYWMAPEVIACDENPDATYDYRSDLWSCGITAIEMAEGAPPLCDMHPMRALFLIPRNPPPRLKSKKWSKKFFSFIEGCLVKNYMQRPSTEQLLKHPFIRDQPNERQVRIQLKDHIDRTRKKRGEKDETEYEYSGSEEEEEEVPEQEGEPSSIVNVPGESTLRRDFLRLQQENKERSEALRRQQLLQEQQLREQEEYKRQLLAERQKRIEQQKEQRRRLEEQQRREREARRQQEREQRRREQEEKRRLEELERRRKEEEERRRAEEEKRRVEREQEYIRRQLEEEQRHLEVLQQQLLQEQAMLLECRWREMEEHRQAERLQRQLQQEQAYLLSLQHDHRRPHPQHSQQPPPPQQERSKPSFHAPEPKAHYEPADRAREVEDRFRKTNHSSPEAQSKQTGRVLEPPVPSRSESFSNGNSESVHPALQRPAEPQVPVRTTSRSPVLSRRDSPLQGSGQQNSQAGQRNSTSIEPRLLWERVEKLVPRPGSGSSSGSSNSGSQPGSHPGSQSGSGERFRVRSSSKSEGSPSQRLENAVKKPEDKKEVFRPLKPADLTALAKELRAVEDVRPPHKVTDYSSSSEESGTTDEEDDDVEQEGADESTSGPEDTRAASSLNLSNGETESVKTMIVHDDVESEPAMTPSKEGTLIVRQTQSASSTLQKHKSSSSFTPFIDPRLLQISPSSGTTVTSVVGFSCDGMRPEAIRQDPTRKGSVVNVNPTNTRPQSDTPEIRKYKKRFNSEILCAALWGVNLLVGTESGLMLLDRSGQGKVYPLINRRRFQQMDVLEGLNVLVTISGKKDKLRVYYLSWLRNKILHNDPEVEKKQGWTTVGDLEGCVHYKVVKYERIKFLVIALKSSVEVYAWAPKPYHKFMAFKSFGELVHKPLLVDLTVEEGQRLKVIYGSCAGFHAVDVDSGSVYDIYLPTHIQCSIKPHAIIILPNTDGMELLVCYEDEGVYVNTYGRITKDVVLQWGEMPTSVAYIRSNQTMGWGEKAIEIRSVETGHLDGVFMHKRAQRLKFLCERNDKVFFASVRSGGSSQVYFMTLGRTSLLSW

[7] = target: Cell division cycle 7-related protein kinase (Homo sapiens, UniProt O00311); assay type: functional;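 further: value obtained from a kinome-wide kinase panel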
[8] = target: Interleukin-1 receptor-associated kinase 4 (Homo sapiens, UniProt Q9NWZ3); assay type: functional
[9] = target: cAMP-dependent protein kinase catalytic subunit alpha (Homo sapiens, UniProt P17612); assay type: functional
[10] = target: MAP kinase-interacting serine/threonine-protein kinase 2 (Homo sapiens, UniProt Q9HBH9); assay type: functional
Chain of MAP kinase-interacting serine/threonine-protein kinase 2 (Q9HBH9 whole entry): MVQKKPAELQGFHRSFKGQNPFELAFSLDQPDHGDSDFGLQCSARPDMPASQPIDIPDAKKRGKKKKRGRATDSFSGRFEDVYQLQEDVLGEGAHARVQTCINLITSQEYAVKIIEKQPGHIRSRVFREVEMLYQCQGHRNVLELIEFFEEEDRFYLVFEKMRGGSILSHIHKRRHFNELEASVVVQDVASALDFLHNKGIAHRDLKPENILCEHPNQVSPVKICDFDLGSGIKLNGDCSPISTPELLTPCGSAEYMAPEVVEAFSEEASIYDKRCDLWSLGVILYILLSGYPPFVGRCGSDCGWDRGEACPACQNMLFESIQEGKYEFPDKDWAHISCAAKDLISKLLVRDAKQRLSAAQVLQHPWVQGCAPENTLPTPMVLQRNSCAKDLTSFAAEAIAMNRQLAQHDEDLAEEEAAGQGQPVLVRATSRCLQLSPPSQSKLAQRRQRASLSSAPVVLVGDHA

[11] = target: Serine/threonine-protein kinase pim-1 (Homo sapiens, UniProt P11309); assay type: functional
[12] = target: Cyclin-dependent kinase 2 (Homo sapiens, UniProt P24941); assay type: functional;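 further: CDK2 measured as one member of a broad kinome profiling panel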
[13] = target: Dual specificity protein kinase CLK4 (Homo sapiens, UniProt Q9HAZ1); assay type: functional
Chain of Dual specificity protein kinase CLK4 (Q9HAZ1 whole entry): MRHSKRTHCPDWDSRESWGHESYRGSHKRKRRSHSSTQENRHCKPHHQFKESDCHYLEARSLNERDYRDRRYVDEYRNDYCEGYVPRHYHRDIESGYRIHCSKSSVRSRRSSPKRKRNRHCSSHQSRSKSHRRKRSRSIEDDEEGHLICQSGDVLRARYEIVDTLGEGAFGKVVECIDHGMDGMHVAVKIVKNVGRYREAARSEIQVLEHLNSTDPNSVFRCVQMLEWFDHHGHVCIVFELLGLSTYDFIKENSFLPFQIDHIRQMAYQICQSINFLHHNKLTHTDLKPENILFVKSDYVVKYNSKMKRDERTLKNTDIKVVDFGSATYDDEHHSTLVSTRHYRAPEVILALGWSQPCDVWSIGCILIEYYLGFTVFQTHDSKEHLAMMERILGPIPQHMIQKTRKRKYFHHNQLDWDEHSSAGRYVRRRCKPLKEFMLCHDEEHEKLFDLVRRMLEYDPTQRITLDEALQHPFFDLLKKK

[14] = target: Homeodomain-interacting protein kinase 2 (Homo sapiens, UniProt Q9H2X6); assay type: functional;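 further: measured within a kinome-wide kinase profiling panel, HIPK2 being one panel member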
Chain of Homeodomain-interacting protein kinase 2 (Q9H2X6 whole entry): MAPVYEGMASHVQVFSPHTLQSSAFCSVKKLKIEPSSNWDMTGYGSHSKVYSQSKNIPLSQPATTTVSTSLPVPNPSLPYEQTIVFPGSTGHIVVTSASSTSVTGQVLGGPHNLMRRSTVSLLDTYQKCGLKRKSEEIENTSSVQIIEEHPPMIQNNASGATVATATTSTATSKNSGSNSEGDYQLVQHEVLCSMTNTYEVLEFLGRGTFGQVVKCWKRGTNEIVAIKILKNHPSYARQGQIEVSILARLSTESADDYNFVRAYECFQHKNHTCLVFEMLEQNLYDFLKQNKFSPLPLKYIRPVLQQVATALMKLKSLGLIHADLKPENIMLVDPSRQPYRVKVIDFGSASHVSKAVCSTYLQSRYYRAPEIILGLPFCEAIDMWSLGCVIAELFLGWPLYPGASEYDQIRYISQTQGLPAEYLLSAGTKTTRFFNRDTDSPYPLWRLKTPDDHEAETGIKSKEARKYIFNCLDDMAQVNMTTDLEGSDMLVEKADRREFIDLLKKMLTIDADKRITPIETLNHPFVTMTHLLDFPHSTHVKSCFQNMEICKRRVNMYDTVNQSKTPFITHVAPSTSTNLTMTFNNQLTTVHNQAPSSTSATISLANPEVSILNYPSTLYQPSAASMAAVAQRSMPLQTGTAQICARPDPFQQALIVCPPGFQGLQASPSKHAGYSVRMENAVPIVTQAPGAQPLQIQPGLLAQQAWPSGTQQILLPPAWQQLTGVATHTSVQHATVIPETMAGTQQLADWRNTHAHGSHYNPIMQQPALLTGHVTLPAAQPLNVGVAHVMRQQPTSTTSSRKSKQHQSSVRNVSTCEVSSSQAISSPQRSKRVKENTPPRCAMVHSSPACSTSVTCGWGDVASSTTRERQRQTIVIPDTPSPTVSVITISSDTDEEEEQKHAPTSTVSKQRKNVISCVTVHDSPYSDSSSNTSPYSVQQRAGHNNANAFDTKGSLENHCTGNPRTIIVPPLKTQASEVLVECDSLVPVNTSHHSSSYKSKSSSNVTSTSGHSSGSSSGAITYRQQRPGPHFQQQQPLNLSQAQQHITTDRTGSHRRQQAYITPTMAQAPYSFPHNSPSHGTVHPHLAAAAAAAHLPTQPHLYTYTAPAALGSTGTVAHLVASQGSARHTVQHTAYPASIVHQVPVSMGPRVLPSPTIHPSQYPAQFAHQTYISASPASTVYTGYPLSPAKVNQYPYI

[15] = target: 26S proteasome non-ATPase regulatory subunit 14 (Homo sapiens, UniProt O00487); assay: inhibition of proteasome subunit RPN11 – biochemical, fluorescence polarization, uHTS hits, confirmation (AID 602368); assay type: functional
[16] = target: Prothrombin (Bos taurus, UniProt P00735); assay: thrombin inhibition, dose response, biochemical, fluorescence polarization, uHTS hits (AID 602369); assay type: functional
[17] = cells
[18] = target: Major prion protein (Homo sapiens, UniProt P04156); assay type: functional, cell-based
[19] = target: 72 kDa type IV collagenase (Homo sapiens, UniProt P08253); assay: Dose Response validation of uHTS RPN11 inhibitor hits using a MMP-2 Fluorescence assay.; assay type: functional
Chain of 72 kDa type IV collagenase (P08253 whole entry): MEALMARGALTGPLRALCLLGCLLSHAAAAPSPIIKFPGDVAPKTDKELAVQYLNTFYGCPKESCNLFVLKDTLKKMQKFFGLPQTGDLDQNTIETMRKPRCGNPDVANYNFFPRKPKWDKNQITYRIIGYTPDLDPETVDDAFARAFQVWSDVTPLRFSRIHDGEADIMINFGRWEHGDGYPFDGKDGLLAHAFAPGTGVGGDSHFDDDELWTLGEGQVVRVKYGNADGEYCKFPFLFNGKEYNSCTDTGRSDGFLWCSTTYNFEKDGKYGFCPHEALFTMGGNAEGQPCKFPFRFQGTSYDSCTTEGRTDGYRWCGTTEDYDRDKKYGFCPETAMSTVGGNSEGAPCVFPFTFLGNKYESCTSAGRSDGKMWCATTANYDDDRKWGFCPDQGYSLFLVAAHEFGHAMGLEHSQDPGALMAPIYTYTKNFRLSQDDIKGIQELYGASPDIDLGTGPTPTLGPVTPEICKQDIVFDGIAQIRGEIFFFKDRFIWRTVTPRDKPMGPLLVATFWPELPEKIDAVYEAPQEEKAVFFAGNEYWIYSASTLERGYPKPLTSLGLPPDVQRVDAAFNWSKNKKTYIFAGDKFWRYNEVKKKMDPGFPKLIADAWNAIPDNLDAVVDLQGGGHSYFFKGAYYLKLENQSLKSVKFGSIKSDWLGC

[20] = target: T1, Sentrin-specific protease 6 (Homo sapiens, UniProt Q9GZR1); assay: SAR Analysis of small molecule inhibitors of Sentrin-specific protease 6 (SENP6) using a Luminescent assay. [Related pubchem assays (depositor defined):AID2582, AID2599]; assay type: functional
T1 sequence (Q9GZR1 whole entry): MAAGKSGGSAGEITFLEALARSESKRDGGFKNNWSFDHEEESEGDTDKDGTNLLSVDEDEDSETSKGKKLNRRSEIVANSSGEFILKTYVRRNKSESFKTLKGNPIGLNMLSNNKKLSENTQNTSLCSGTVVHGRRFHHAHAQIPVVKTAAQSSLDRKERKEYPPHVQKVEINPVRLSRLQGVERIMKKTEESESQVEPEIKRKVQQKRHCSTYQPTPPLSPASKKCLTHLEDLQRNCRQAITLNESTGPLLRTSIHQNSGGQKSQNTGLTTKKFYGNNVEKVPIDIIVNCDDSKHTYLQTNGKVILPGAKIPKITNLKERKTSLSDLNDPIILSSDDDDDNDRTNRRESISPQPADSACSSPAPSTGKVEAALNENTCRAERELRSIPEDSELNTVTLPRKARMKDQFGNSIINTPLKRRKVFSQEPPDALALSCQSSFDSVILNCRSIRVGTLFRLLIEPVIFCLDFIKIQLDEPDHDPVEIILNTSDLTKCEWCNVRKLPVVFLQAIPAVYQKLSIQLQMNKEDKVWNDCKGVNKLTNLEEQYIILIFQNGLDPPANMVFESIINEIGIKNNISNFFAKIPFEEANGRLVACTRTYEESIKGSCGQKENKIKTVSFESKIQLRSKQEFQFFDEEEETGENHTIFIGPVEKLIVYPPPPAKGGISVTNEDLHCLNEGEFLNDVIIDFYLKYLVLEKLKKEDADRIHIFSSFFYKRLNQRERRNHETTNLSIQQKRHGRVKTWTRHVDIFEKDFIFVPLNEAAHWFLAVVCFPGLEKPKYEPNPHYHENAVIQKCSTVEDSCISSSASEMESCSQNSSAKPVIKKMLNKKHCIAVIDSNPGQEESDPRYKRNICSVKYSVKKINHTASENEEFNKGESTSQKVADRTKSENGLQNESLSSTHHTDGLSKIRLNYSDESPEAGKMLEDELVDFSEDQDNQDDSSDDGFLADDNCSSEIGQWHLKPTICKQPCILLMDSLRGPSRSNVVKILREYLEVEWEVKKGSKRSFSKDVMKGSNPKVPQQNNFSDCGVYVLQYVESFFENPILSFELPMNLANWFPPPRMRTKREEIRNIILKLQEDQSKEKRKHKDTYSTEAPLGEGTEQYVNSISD

[21] = target: T2, Caspase-3 (Homo sapiens, UniProt P42574); assay: SAR Analysis of small molecule inhibitors of Sentrin-specific proteases (SENPs) using a Caspase-3 Selectivity assay. [Related pubchem assays (depositor defined):AID2540, AID2599, AID434973, AID489001]; assay type: functional
T2 sequence (P42574 whole entry): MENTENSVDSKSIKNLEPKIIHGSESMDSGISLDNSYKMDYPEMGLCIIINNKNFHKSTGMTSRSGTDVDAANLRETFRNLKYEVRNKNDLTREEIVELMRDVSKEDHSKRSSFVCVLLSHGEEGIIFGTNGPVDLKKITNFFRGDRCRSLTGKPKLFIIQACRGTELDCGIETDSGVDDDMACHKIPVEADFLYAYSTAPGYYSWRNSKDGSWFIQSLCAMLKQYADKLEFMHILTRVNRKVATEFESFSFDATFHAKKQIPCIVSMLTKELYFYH

[22] = target: T3, Sentrin-specific protease 7 (Homo sapiens, UniProt Q9BQF6); assay: SENP7 protease inhibitors, SAR follow-up, biochemical, luminescence (AID 504497); assay type: functional
T3 sequence (Q9BQF6 whole entry): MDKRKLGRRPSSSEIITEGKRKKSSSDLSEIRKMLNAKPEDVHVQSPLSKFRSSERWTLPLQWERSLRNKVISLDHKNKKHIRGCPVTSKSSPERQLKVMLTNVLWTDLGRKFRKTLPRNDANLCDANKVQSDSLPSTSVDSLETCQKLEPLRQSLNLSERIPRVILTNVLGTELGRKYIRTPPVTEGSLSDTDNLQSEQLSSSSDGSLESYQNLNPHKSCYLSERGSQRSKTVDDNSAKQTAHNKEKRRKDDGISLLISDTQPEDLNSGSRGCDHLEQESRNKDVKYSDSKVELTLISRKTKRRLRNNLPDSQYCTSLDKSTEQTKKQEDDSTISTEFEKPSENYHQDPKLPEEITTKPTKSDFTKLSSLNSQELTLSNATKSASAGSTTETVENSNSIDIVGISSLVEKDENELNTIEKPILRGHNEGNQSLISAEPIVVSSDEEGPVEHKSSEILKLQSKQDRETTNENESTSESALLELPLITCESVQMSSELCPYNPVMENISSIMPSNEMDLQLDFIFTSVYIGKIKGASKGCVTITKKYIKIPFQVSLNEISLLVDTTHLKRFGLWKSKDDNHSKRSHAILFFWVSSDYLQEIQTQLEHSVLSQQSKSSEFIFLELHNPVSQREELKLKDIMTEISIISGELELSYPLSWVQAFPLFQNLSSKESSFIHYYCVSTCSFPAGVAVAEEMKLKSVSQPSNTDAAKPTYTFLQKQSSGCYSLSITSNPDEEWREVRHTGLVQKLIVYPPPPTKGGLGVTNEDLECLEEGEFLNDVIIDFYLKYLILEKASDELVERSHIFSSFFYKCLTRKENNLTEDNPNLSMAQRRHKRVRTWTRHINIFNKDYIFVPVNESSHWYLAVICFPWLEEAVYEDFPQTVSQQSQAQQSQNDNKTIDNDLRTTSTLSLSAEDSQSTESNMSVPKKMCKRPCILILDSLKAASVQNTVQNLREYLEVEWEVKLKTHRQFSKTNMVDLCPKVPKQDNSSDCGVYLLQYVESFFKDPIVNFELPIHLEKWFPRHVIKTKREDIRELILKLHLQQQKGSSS

[23] = target: T4, Sentrin-specific protease 8 (Homo sapiens, UniProt Q96LD8); assay: SENP8 protease inhibitors, SAR follow-up, biochemical, luminescence (AID 504501); assay type: functional
T4 sequence (Q96LD8 whole entry): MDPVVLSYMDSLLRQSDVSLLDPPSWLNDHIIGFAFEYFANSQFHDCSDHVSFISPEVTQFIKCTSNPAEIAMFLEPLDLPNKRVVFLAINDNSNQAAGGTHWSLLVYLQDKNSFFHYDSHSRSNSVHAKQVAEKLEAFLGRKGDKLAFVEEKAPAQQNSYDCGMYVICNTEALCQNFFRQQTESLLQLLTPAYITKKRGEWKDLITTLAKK

[24] = target: Neuropeptides B/W receptor type 1 (Homo sapiens, UniProt P48145); assay: GPR7 antagonist potency, late-stage follow-up, cell-based, fluorescence, dose response, set 5 (AID 588566); assay type: functional
[25] = target: Melanin-concentrating hormone receptor 1 (Homo sapiens, UniProt Q99705); assay: Late-stage fluorescence-based counterscreen for antagonists of the G-protein coupled receptor 7 (GPR7): cell-based dose response assay to identify antagonists of the melanin-concentrating hormone receptor 1 (MCHR1) Set 5.; assay type: functional
Chain of Melanin-concentrating hormone receptor 1 (Q99705 whole entry): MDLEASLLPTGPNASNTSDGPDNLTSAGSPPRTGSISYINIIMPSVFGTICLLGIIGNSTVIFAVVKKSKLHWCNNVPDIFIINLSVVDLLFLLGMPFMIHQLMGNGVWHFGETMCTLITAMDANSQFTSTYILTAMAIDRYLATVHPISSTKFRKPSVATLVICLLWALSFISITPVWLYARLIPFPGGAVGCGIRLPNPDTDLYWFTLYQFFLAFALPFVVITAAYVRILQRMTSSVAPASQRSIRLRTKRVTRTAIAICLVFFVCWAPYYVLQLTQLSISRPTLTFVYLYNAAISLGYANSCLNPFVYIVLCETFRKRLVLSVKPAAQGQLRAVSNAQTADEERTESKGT

[26] = target: Aurora kinase B (Homo sapiens, UniProt Q96GD4); assay type: functional
Chain of Aurora kinase B (Q96GD4 whole entry): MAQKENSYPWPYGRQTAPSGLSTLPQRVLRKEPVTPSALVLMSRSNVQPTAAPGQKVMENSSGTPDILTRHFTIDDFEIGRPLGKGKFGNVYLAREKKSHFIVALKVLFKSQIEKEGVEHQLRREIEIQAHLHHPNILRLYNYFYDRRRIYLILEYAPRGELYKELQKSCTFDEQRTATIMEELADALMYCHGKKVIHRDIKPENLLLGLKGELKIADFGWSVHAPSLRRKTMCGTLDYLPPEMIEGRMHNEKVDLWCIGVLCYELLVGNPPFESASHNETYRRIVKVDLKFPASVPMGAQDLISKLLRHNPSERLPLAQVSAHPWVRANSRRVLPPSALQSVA

[27] = target: Vascular endothelial growth factor receptor 2 (Homo sapiens, UniProt P35968); assay type: functional
[28] = target: Aurora kinase A (Homo sapiens, UniProt O14965); assay type: functional;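 further: value from the Navigating the Kinome kinase panel profiling, panel entry STK6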

COc1cc(C(=S)N2CCOCC2)ccc1OC(=O)c1ccc([N+](=O)[O-])cc1[N+](=O)[O-]
IC50 [1]: > 64.6 µM (inactive) | IC50 [2]: > 64.6 µM (inactive)

Fc1ccc(OCCSc2nc3cccnc3[nH]2)cc1
IC50 [3]: > 99 µM (inactive) | IC50 [4]: > 99 µM (inactive)

NC1CCCCC1Nc1nccc(Nc2ccccc2C(=O)O)n1 (stereo not drawn)
Ki [5]: 6.31 µM (active) | Ki [6]: > 10 µM (inactive) | Ki [7]: 0.0316 µM (active) | Ki [8]: > 10 µM (inactive) | Ki [9]: > 7.94 µM (inactive) | Ki [10]: > 10 µM (inactive) | Ki [11]: 2 µM (active) | Ki [12]: > 7.94 µM (inactive) | Ki [13]: > 10 µM (inactive) | Ki [14]: > 3.16 µM (inactive)

Nc1nnc(SCc2nc(O)c3c(-c4ccccc4)csc3n2)s1
IC50 [15]: 28.9 µM (active) | IC50 [16]: 30.8 µM (active) | IC50 [17]: > 138 µM (inactive) | IC50 [18]: 12.2 µM (inactive) | IC50 [19]: > 100 µM (inactive)

CCc1ccc(-c2nc(/C=C/c3ccccc3)no2)cc1
IC50 [20]: > 99 µM (inactive) | IC50 [21]: 80 µM (active) | IC50 [22]: 46.5 µM (active) | IC50 [23]: > 99 µM (inactive)

O=c1c(Oc2ccc3c(c2)OCO3)c(Cl)cnn1Cc1cccc2ccccc12
IC50 [24]: 0.368 µM (active) | IC50 [25]: 11.2 µM (inactive)

O=S(=O)(Nc1ccc2c(c1)C(=NO)c1ccccc1-2)c1cccc(F)c1
Ki [26]: 0.00631 µM (active) | Ki [27]: 3.98 µM (active) | Ki [28]: 0.501 µM (active)
